Tests used:
[1] = target: T1, His6-CRBN/DDB1 and GST-BRD4(BD2) (Homo sapiens, UniProt O60885+Q96SW2); assay: AlphaScreen ternary complex formation, His6-CRBN/DDB1 and GST-BRD4(BD2); format: binding
T1 construct: His6-CRBN/DDB1 complex and GST-BRD4 BD2 domain; purchased Epicypher (GST-BRD4(BD2)); Bristol Myers Squibb gift (His6-CRBN/DDB1) 15-0013
Procedure: AlphaScreen was performed according to the previously reported method.7 Briefly, for AlphaScreen of His6-CRBN/DDB1, GST-IKZF1 and (S)-, (R)- or rac-lenalidomide-d3, a solution of 100 nM His6-CRBN/DDB1 and 200 nM GST-IKZF1 in 1x AlphaScreen buffer (5 µL) and a solution of the indicated compound in 1x AlphaScreen buffer (5 µL) were added to a each well of a 384-well Optiplate and incubated at 24 °C for 1 h. To each well, a solution of 5 µL of 60 µg/mL AlphaScreen Glutathione Donor beads, 60 µg/mL AlphaLISA Nickel Chelate Donor beads in 1× AlphaScreen buffer was added to each well and incubated at 24 °C for 1 h in the dark and the plate was analyzed. For AlphaScreen of His6-CRBN/DDB1, GST-BRD4(BD2) and bivalent degraders, a solution of 750 nM His-CRBN/DDB1 and 375 nM GST-BRD4(BD2) in 1x AlphaScreen buffer (5 µL) and a solution of the indicated compound in 1x AlphaScreen buffer (5 µL) were added to a each well of a 384-well Optiplate and incubated at 24 °C for 1 h. To each well, a solution of 5 µL of 60 µg/mL AlphaScreen Glutathione Donor beads, 60 µg/mL AlphaLISA Nickel Chelate Donor beads in 1× AlphaScreen buffer was added to each well and incubated at 24 °C for 1 h in the dark and the plate was analyzed. […]
heated at 95 °C for 5 min. 10 µL of the immunoprecipitated sample was load on a 12% Tris-glycine gel and probe-labeling was visualized by fluorescence signal. Separately, 10 µL of the immunoprecipitated sample and the “input” sample were load on a 12% Tris-glycine gel and analyzed by Western blotting. […]
Parental cell lines were stably infected with a unique 24-nucleotide DNA barcode via lentiviral transduction and blasticidin selection. […] Passing barcoded lines were then pooled (20-25 cell lines per pool) based on doubling time and frozen in assay-ready vials.
Test compounds were added to 384-well plates and run at 8 pt. dose with 3-fold dilutions, the highest concentration of 25 µM in triplicate. These assay ready plates were then seeded with […]

MOLM13 cells = assay: Global quantitative proteomics of protein levels; format: cell-based; settings: 4 h; for FC [fold change abundances (rac/DMSO)] / logFC (rac vs DMSO) / FC [fold change abundances (R/DMSO)] / logFC (R vs DMSO): MOLM13, 100 nM
Procedure: Global Quantitative Proteomics Sample Preparation and Mass Spectrometry Acquisition Global Quantitative Proteomics was performed according to the previously reported method.7 Briefly, 1.0×10^6 MOLM13 cells were seeded in 12-well plates and small molecules of interest were added, and cells were incubated at 37 °C, 5% CO2 for 4 hours. Cells were collected […]
15 sec in total, 11% amplitude) in lysis buffer (5% SDS in 50 mM triethylammonium bicarbonate (TEAB), pH 7.55), and cleared by centrifugation (21,000 × g, 4 °C, 10 min). After protein quantification by BCA protein assay, the lysates were diluted to 1.5 mg/mL with the lysis buffer. The diluted lysates (60 μL) were reduced by addition of dithiothreitol (20 mM) at 24 °C for 30 min then alkylated by addition of iodoacetamide (40 mM) and incubation in the dark at 24 °C for 30 min.

His6-CRBN/DDB1 = His6-CRBN/DDB1 (Homo sapiens, UniProt Q96SW2); assay: TR-FRET ligand displacement assay (Thal-FITC tracer) with His6-CRBN/DDB1
[2] = target: T2, thalidomide-binding domain of CRBN (CULT) (Homo sapiens, UniProt Q96SW2); assay: Photoaffinity labeling binding site mapping with i-pLen probes by LC-MS/MS; settings: equimolar mixture of i-pLen probes, photolysis after 30 min at 24 °C
T2 construct: made in house
T2 sequence (Q96SW2 318-426 limits assumed): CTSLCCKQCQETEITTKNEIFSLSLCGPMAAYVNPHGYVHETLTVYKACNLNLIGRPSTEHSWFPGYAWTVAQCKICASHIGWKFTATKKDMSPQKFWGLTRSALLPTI
Procedure: (§1) (v21.1.1) and Adobe Illustrator (v24.1).
(§2) MM.1S, MOLM13, Jurkat, and BxPC3 […]
(§3) μg/mL), and 10% (v/v) FBS.
(§4) Western Blotting Procedures […]
(§5) lysates and the concentration was adjusted using lysis buffer. 5× SDS-PAGE loading buffer […]
(§6) Protein samples (8–15 μL per lane) were […]
(§7) precast gels for medium molecular weight proteins. Gels were transferred to membranes using […]
(§8) for high molecular weight proteins. Membranes were stained with Ponceau S solution to visualize transfer and protein loading.
(§9) Degradation assay by flow cytometry […]
(§10) resuspension in DMEM +/– without phenol red. For IKZF1 degradation assay, propidium […]
(§11) equipped with a high throughput sampler. […]
(§12) using the BD FACSDiva software v9.1. For each experimental condition, the arithmetic mean […]
(§13) comparing compound treatment to DMSO control.
(§14) Structural proteomics mass spectrometry sample preparation […]
addition of a pre-mixed cocktail (final concentrations: 100 μM cleavable biotin picolyl-azide probe, 250 μM THPTA, 250 μM CuSO4, 2.5 mM freshly dissolved sodium ascorbate) and incubated for 1.5 h at 25 °C with inversion. After excess reagent was removed by acetone precipitation, the protein pellet was resuspended in 100 mM TEAB (50 μL, pH=8.5) and 100 mM DTT/PBS (1.5 μL, final concentration 3 mM) was added before incubating for 30 min at 25 °C with inversion. […]
The raw data were analyzed using Proteome Discoverer 2.4.1.15. […]

[3] = target: T3, BRD4(BD1)-GFP in HEK293T cells (Homo sapiens, UniProt O60885+Q96SW2); assay: Degradation assay by flow cytometry, BRD4(BD1)-GFP; format: cell-based; settings: 76 pM–20 μM, 4 h
T3 construct: HEK293T cells stably expressing BRD4(BD1) fused to GFP
Procedure: as §1, §2, §3, §4, §5, §6, §7, §8, §9, §10, §11, §12, §13, §14
sample throughout the assay duration. The same analysis was also applied to the (S)- […]
dependent activity, we adjusted the dose-response curves accordingly. Because dose- […]
within the error margins of the original curve. […]
squares F-test. This analysis determined whether there was a statistically significant […]
derived (S)-enantiomer. If there is a statistically significant difference, the null […]
Cells were treated with 1 μM MLN4924
The cells were collected and lysed in […]
centrifugation (21,000 × g, 4 °C, 10 min). […]

[4] = KD, competitive TR-FRET, His6-CRBN/DDB1
[5] = Protein CRBN, from IC50 with Correction Factor 1.43

[2H]C1([2H])CC([2H])(N2Cc3cc(NC(=O)CCCCCCCCNC(=O)C[C@@H]4N=C(c5ccc(Cl)cc5)c5c(sc(C)c5C)-n5c(C)nnc54)ccc3C2=O)C(=O)NC1=O (mixture of isomers) [JQ1-rac-Len-d3]
ternary complex formation between His6-CRBN/DDB1 and GST-BRD4(BD2) [1]: much less than JQ1-(S)-Len-d3
FC [fold change abundances (rac/DMSO)] (MOLM13 cells; protein AHCY): 0.9686
logFC (rac vs DMSO) (MOLM13 cells; protein AHCY): 0.2393
FC [fold change abundances (rac/DMSO)] (MOLM13 cells; protein GNB4): -1.362
logFC (rac vs DMSO) (MOLM13 cells; protein GNB4): -0.6098
FC [fold change abundances (rac/DMSO)] (MOLM13 cells; protein NUP88): -1.247
logFC (rac vs DMSO) (MOLM13 cells; protein NUP88): -0.5083
FC [fold change abundances (rac/DMSO)] (MOLM13 cells; protein SATB2): -1.143
logFC (rac vs DMSO) (MOLM13 cells; protein SATB2): -0.4122
FC [fold change abundances (rac/DMSO)] (MOLM13 cells; protein TUBB4B): 1.098
logFC (rac vs DMSO) (MOLM13 cells; protein TUBB4B): 0.3694
Kd (His6-CRBN/DDB1; [4]): < 2 nM

C#CCCC1(CC(=O)Nc2ccc3c(c2)C[15N]([C@@H]2CCC(=O)NC2=O)C3=O)N=N1 [(R)-i-pLen]
CRBN residue labeled by the probe [2]: Tyr355

C#CCCC1(CC(=O)Nc2ccc3c(c2)CN([C@H]2CCC(=O)[15NH]C2=O)C3=O)N=N1 [(S)-i-pLen]
CRBN residue labeled by the probe [2]: His353

[2H]C1([2H])C[C@@]([2H])(N2Cc3cc(NC(=O)CCCCCCCCNC(=O)C[C@@H]4N=C(c5ccc(Cl)cc5)c5c(sc(C)c5C)-n5c(C)nnc54)ccc3C2=O)C(=O)NC1=O [JQ1-(R)-Len-d3]
degradation of BRD4(BD1)-GFP [3]: limited activity
BRD4 protein levels by global quantitative proteomics (MOLM13 cells; MOLM13 cells, 100 nM): unperturbed
FC [fold change abundances (R/DMSO)] (MOLM13 cells; protein ARID1A): 3.475
logFC (R vs DMSO) (MOLM13 cells; protein ARID1A): 1.826
FC [fold change abundances (R/DMSO)] (MOLM13 cells; protein CAB39): 0.9606
logFC (R vs DMSO) (MOLM13 cells; protein CAB39): 0.2309
FC [fold change abundances (R/DMSO)] (MOLM13 cells; protein FLII): 1.596
logFC (R vs DMSO) (MOLM13 cells; protein FLII): 0.7992
FC [fold change abundances (R/DMSO)] (MOLM13 cells; protein FUBP3): 1.064
logFC (R vs DMSO) (MOLM13 cells; protein FUBP3): 0.3358
FC [fold change abundances (R/DMSO)] (MOLM13 cells; protein TPD52): 1.273
logFC (R vs DMSO) (MOLM13 cells; protein TPD52): 0.5322
Kd (His6-CRBN/DDB1; [4]): 79 nM

Cc1sc2c(c1C)C(c1ccc(Cl)cc1)=N[C@@H](CC(=O)NCCCCCCCCC(=O)N[C@@H](Cc1ccccc1)C(=O)N[C@@H]1CCC(=O)NC1=O)c1nnc(C)n1-2 [JQ1-FepicQ]
ternary complex formation between His6-CRBN/DDB1 and GST-BRD4(BD2) [1]: minimally promoted the ternary complex
pIC50 (M) (His6-CRBN/DDB1; Protein CRBN, Thalidomide-FITC tracer 50 nM): 6.08 M
IC50 (His6-CRBN/DDB1; Protein CRBN, Thalidomide-FITC tracer 50 nM, protein […]): 840 nM
Kd (His6-CRBN/DDB1; [5]): 589 nM
pKD (M) (His6-CRBN/DDB1; [5]): 6.23 M

Source: article PMC12117711, “The contribution of cyclic imide stereoisomers on cereblon-dependent activity†” (Chemical Science, 2025)
